According to patent EP4772509A1, “KINESIN KIF18A INHIBITOR, AND APPLICATION THEREOF” (Shanghai Apeiron Therapeutics Company Limited, priority 2023, dated 2025):
Read-outs that look alike come from different tables or passages of the source.

Assays:
[1] = molecular target: T1, Human KIF18A (amino acid sequence 1-417) (Homo sapiens, UniProt Q8NI77); experiment: Enzymatic activity test (ADP-Glo, microtubule-stimulated ATPase); type: biochemical; settings: 60 µg/mL microtubules, 25 µM ATP, 2.5 nM KIF18A protein, 120 min at ambient temperature, chemiluminescence; read-out: KIF18A IC50
T1 construct: purchased Viva Biotech (Shanghai) Ltd
T1 sequence (Q8NI77 1-417): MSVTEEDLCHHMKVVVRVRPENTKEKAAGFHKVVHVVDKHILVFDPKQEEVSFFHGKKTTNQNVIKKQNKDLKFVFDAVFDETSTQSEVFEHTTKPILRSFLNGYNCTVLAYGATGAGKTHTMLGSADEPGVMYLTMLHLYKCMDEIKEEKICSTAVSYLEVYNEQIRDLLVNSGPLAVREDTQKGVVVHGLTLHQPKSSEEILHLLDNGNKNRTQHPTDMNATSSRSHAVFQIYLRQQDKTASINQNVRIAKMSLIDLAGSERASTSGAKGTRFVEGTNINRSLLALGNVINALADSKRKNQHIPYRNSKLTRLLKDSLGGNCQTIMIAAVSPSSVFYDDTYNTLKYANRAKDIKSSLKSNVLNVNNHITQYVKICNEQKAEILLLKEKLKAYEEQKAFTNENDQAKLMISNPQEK
Procedure, shortened: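 Compounds (0-10 µM final, from 10 mM DMSO stock) were incubated 120 min at room temperature with 2.5 nM KIF18A 1-417, 25 µM ATP and 60 µg/mL microtubules. ATPase output was measured as ADP via ADP-Glo luminescence.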

HT29 cells = experiment: CyQuant cell proliferation activity test; type: cell-based; settings: HT29 at 2000 cells per well, 3 days, 0.2% DMSO, XLFIT
Method: Materials and Cells: HT29 cells were purchased from Nanjing Cobioer Biosciences Co., Ltd.; RPMI-1640 medium, fetal bovine serum, Trypsin-EDTA (0.25%), 96-well plates, and CyQuant reagents were purchased from ThermoFisher (USA); DMSO was purchased from SIGMA (USA).
Cell Culture: HT29 cells were cultured with RPMI-1640 containing 10% fetal bovine serum under the condition of 37°C and 5% CO2. Only cells in the logarithmic growth phase could be used for the test.
Cell Proliferation Activity Test: CyQuant reagent was used to detect the proliferation inhibitory activity of compounds on HT29 cells. The cell density was adjusted, and 100 µL per well was inoculated into a 96-well plate (HT29 at 2000 cells per well), then incubated overnight at 37°C and 5% CO2. Add compounds of various target concentrations (initial concentration of 3000 nM, 3-fold dilution, 9 concentration gradients), and make the DMSO content 0.2%. The cell plate was incubated at 37°C in 5% CO2 for 3 days. CyQuant reagent was added and incubated for 1 h. The plates were read by Envision, and IC50 was calculated using XLFIT.

OVCAR3 cells = experiment: Cell proliferation activity test (CyQUANT Direct); type: cell-based; settings: 3 days, 0.2% DMSO, CyQUANT fluorescence
Procedure, shortened: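 OVCAR3 cells in RPMI-1640 with 10% FBS were seeded, then treated overnight later with compound at final 0–10 µM (0.2% DMSO) for 3 days at 37°C, 5% CO2. Proliferation was read as CyQUANT Direct fluorescence after 60 min at 37°C.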

IC50 (HT29 cells; read-out: HT-29 IC50) [nM] | IC50 (OVCAR3 cells) [nM] | Molecule | IC50 [1] [nM] | IC50 (HT29 cells; Homo sapiens, HT-29, 72 h) [nM] | IC50 (OVCAR3 cells; Homo sapiens, OVCAR-3, 72 h) [nM]
 |  | Cc1cc2nc(n1)N1CCC(F)(F)C(C=CCc3ccc(cc3)-c3cc(NS(=O)(=O)CCO)ccc3C(=O)N2)C1 (stereo not drawn) [Example 55, N-(1^4,1^4-difluoro-2^6-methyl-4-oxo-3-aza-2(2,4)-pyrimidin-1(1,3)-piperidin-5(1,2),6(1,4)-diphenylheterocyclonon-8-en-5^4-yl)-2-hydroxyethane-1-sulfonamide] | 88 | 29 | 30
 |  | Cc1cc2nc(n1)N1CCC(F)(F)[C@@H](CCCC3CCN(CC3)c3cc(NS(=O)(=O)CCO)c4c(c3C(=O)N2)CCC4=O)C1 [Example 6, N-((1^3S)-1^4,1^4-difluoro-2^6-methyl-5^1,4-dioxo-5^2,5^3-dihydro-5^1H-3-aza-2(2,4)-pyrimidin-1(1,3),6(1,4)-dipiperidin-5(4,5) -indenoheterocyclononane-5^7-yl)-2-hydroxyethane-1-sulfonamide] | 73 | 41 | 41
 |  | Cc1cc2nc(n1)N1CCC(F)(F)C(C=CCC3=CC=C(S3)c3cc(NS(=O)(=O)CCO)ccc3C(=O)N2)C1 (stereo not drawn) [Example 57, N-(1^4,1^4-difluoro-2^6-methyl-4-oxo-3-aza-2(2,4)-pyrimidin-1(1,3)-piperidin-6(2,5)-thiophene-5(1,2)-benzoazacyclon-8-en-5^4-yl)-2-hydroxyethane-1-sulfonamide] | 52 | 22 | 119
 |  | CON(C)C(=O)c1cc2c(cc1NS(=O)(=O)CCO)N1CCC(C/C=C/C3CN(CCC3(F)F)c3nc(C)cc(n3)-c3cn-2nn3)CC1 (stereo not drawn) [Example 90, (3^4Z,7E)-1^4,1^4-difluoro-4^4-((2-hydroxyethyl)sulfonamido)-N-methoxy-N,2^6-dimethyl-3^1H-2(2,4)-pyrimidin-1(1,3),5(1,4) -dipiperidin-3(4,1)-triazole-4(1,2)-benzocyclooct-7-en-45-carboxamide] | 274 | 333 | 136
192 | 112 | COc1cc2nc(n1)N1CCC(F)(F)C(CCCc3ccc(cc3)-c3cc(NS(=O)(=O)CCO)ncc3C(=O)N2)C1 (single isomer, unassigned) [Example 56B, N-(1^4,1^4-difluoro-2^6-methoxy-4-oxo-3-aza-2(2,4)-pyrimidin-5(3,4)-pyridin-1(1,3)-piperidin-6(1,4)-benzoazacyclononane-5^6-yl)-2-hydroxyethane-1-sulfonamide] | 9 |  | 
639 | 639 | Cc1cc2nc(n1)N1CCC(F)(F)C(C=CCC3CCN(CC3)c3cc(NS(=O)(=O)CCO)c4c(c3C(=O)N2)CCC4=O)C1 (single isomer, unassigned) [Example 2B, N-(1^4,1^4-difluoro-2^6-methyl-5^1,4-dioxo-5^2,5^3-dihydro-5^1H-3-aza-2(2,4)-pyrimidin-1(1,3),6(1,4)-dipiperidin-5(4,5)-indenoheterocyclonon-8-en-5^7-yl)-2-hydroxyethane-1-sulfonamide] | 3550 |  | 
 |  | COc1cc2nc(n1)N1CCC(F)(F)C(CCCc3ccc(cc3)-c3cc(NS(=O)(=O)CCO)ncc3C(=O)N2)C1 (single isomer, unassigned) [Example 56A, N-(1^4,1^4-difluoro-2^6-methoxy-4-oxo-3-aza-2(2,4)-pyrimidin-5(3,4)-pyridin-1(1,3)-piperidin-6(1,4)-benzoazacyclononane-5^6-yl)-2-hydroxyethane-1-sulfonamide] | 41 | 378 | 188
 |  | COC(=O)c1cc2c(cc1NS(=O)(=O)CCO)N1CCC(C/C=C/C3CN(CCC3(F)F)c3nc(C)cc(n3)-c3cn-2nn3)CC1 (stereo not drawn) [Example 92A, methyl(3^4Z,7E)-1^4,1^4-difluoro-4^4-((2-hydroxyethyl)sulfonamido)-2^6-methyl 3^1H-2(2,4)-pyrimidin-1(1,3),5(1,4)-dipiperidin-3(4,1)-triazole-4(1,2)-benzocyclooct-7-en-4^5carboxylate] | 427 | 154 | 141
 |  | Cc1cc2nc(n1)N1CCC(F)(F)C(/C=C/CC3CCN(CC3)c3cc(NS(=O)(=O)CCO)c4c(c3C(=O)N2)OCC4=O)C1 (stereo not drawn) [Example 14A, N-(1^4,1^4-difluoro-2^6-methyl-5^3,4-dioxo-5^2,5-dihydro-3-aza-2(2,4)-pyrimidin-1(1,3),6(1,4)-dipiperidin-5(7,6)-benzofurancyclononane-8-en-5^4-yl)-2-hydroxyethane-1-sulfonamide] | 44 | 837 | 635
 |  | Cc1cc2nc(n1)N1CCC(F)(F)C(/C=C/CC3CCN(CC3)c3cc(NS(=O)(=O)CCO)c4c(c3C(=O)N2)CCC4(F)F)C1 (stereo not drawn) [Example 15, 2-Hydroxy-N-(1^4,1^4,5^1,5^1-tetrafluoro-2^1-methyl4-dioxo-5^2,5^1-dihydro-5^1H-3-aza-2(2,4)-pyrimidin-1(1,3),6(1,4)-dipiperidin-5(4,5)-benzofurancyclononane-8-en-5^7-yl)-ethane-1-sulfonamide] | 358 | 46 | 24
 |  | COc1cc2nc(n1)N1CCC(F)(F)C(/C=C\CC3CCN(CC3)c3cc(NS(=O)(=O)CCO)c4c(c3C(=O)N2)CCC4=O)C1 (stereo not drawn) [Example 5, N-(1^4,1^4-difluoro-2^6-methoxy-5^1,4-dioxo-5^2,5^3-dihydro-5^1H-3-aza-2(2,4)-pyrimidin-1(1,3),6(1,4)-dipiperidin-5(4,5)-indenoheterocyclononane-8-en-5^7-yl)-2-hydroxyethane-1-sulfonamide] | 162 | 42 | 42
 |  | CC(=O)c1cc2c(cc1NS(=O)(=O)CCO)N1CCC(C/C=C/C3CN(CCC3(F)F)c3nc(C)cc(n3)-c3cn-2nn3)CC1 (racemic) [Example 88, N-((3^4Z,7E)-4^5-acetyl-1^4,1^4-difluoro-2^6-methyl-3^1H-2(2,4)-pyrimidin-1(1,3),5(1,4)-dipiperidin-3(4,1)-triazole-4(1,2)-benzocyclooct-7-en-4^4-yl)-2-hydroxyethane-1-sulfonamide] | > 3000 | > 3000 | > 3000
 |  | Cc1cc2nc(n1)N1CCC(F)(F)C(/C=C\CC3CCN(CC3)c3cc(NS(=O)(=O)CCO)c4c(c3C(=O)N2)CCC4)C1 (stereo not drawn) [Example 4, N-(1^4,1^4-difluoro-2^6-methyl-4-oxo-5^2,5^3-dihydro-5^1H-3-aza-2(2,4)-pyrimidin-1(1,3),6(1,4)-dipiperidin-5(4,5)-indenoheterocyclonon-8-en-5^7-yl)-2-hydroxyethane-1-sulfonamide] | 404 | 55 | 49
 |  | Cc1cc2nc(n1)N1CCC(F)(F)C(/C=C/CC3CCN(CC3)c3cc(NS(=O)(=O)CCO)c(C(=O)C4CC4)cc3-n3cc-2nn3)C1 (stereo not drawn) [Example 89, N-((3^4Z,7E)-4^5-(cyclopropanecarbonyl)-1^4,1^4-difluoro-2^6-methyl-3^1H-2(2,4)-pyrimidin-1(1,3),5(1,4)-dipiperidin-3(4,1) -triazole-4(1,2)-benzocyclooct-7-en-4^4-yl)-2-hydroxyethane-1-sulfonamide] | 1700 | 173 | 171
29 | 31 | N-((3^4Z,7E)-1^4,1^4-difluoro-2^6-methyl-3^1H-2(2,4)-pyrimidin-1(1,3),5(1,4)-dipiperidin-3(4,1)-triazole-4(1,2)-benzocyclooct-7 -en-4^4-yl)-2-hydroxyethane-1-sulfonamide [Example 81D] | 132 |  | 

Molecule | IC50 (HT29 cells; read-out: HT-29 IC50) [nM] | IC50 (OVCAR3 cells) [nM] | IC50 [1] [nM] | IC50 (HT29 cells; Homo sapiens, HT-29, 72 h) [nM] | IC50 (OVCAR3 cells; Homo sapiens, OVCAR-3, 72 h) [nM]
Cc1cc2nc(n1)N1CCC(F)(F)C(C=CCC3CCN(CC3)c3cc(NS(=O)(=O)CCO)c4c(c3C(=O)N2)CNC4=O)C1 (stereo not drawn) [Example 16, N-(6^4,6^4-difluoro-5^6-methyl-2^1,3-dioxo-2^2,2^3-dihydro-2^1H-4-aza-2(5,4)-isoindole-5(4,2)-pyrimidin-1(1,4),6(1,3)-dipiperidineheterocyclonon-7-en-2^7-yl)-2-hydroxyethane-1-sulfonamide] | 95 | 89 | 45 |  | 
